Values of other authors in US20100151020A1, “DRUG […] SYSTEM FOR ZERO ORDER, ZERO ORDER BIPHASIC, ASCENDING OR […] […] OF METHYLPHENIDATE” (priority 2008, published 2010).
Counter-ions that a name gives are not always drawn. Like-named read-outs stand apart in the source and are kept apart here.

Experiments:
[1] = chronic methylphenidate dosing
[2] = reports

For `COC(=O)C(c1ccccc1)C1CCCCN1` (stereo not shown) [methylphenidate HCl], which drug excreted (adults) is on record?
Its drug excreted is 80%.

What about the drug excreted (children) of the same compound?
Its drug excreted is 67%.

What about the time to peak (children, immediate release) of the same compound?
The time to peak was 1.9 h.

And the “time to peak, range” value (children, immediate release)?
The value was 0.3 to 4.4 h.

And the pharmacokinetic half-life (immediate release)?
The pharmacokinetic half-life was 2 to 3 h.

What about the primary adverse events [1] of the same compound?
Its primary adverse events is “nervousness, insomnia, and appetite suppression”.

What about the “AD/HD patients responding positively” value [2] of the same compound?
Its value is 70-90%.
